Consider 18 compounds from patent US6090786A, “Serine proteases, their activity and their synthetic inhibitors” (priority 1994, dated 2000).

Structures can show the parent of a compound that is named as a salt. Where two headings read alike, the source gives them in different places. No end group written: not given here.

Data set [1] addresses T1, purified human platelet prolyl oligopeptidase (Homo sapiens, UniProt P48147).
T1 construct: purified human platelet prolyl oligopeptidase; from tissue; host or cells: human thrombocytes (platelets)
T1 sequence (P48147 1-710): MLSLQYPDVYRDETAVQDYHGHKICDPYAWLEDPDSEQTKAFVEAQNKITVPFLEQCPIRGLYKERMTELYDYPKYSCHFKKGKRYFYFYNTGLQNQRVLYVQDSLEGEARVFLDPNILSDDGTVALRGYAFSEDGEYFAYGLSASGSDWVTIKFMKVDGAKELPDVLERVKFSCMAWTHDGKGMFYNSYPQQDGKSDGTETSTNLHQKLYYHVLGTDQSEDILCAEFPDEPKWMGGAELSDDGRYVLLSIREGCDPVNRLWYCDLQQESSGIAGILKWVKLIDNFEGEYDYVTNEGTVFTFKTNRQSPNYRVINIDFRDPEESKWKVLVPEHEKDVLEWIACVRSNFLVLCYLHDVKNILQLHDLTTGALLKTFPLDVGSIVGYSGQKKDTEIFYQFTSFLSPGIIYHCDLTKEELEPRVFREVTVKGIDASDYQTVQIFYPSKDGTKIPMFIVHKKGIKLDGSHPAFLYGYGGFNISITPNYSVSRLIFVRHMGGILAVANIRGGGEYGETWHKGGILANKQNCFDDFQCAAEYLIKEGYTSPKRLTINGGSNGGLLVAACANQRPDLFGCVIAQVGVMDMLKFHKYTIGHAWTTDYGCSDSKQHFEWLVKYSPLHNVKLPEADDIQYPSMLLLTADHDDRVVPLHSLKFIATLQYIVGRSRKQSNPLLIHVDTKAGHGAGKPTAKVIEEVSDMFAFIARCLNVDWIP
As to the kind of experiment: In vitro inhibition of PEP. Format: biochemical. The settings on record: for IC50: 20 min preincubation at 37° C., substrate Z-Gly-Pro-AMC; for Ki: Dixon-plot. On the procedure:
(§1) The remaining activity was determined by adding 5 μl substrate (Z-Gly-Pro-AMC, 5.6 mM) and measurement of the fluorescence at λex 370 nm, λem 440 nm after a further 20 min incubation at 37° C. The inhibitors were dissolved in methanol and control experiments were performed to correct for the presence of the solvents used. The IC50 value was derived from a plot, joining the residual activity and the dosis of the respective compounds (at least eight concentrations tested). The Ki values were derived from a direct linear plot (Dixon-plot). The measurements were performed in triplicate and only those lines having a correlation coefficient of at least 0.95 were used for determination of the Ki value.

The nature of data set [2]: Functional stability of DPPIV inhibitors in human citrated plasma. Format: in vitro ADME. Conditions: 37° C. On the procedure:
(§2) To determine the functional stability of the inhibitors in the reaction medium, a 10 mM stock solution in DMSO was diluted 50-fold in 50 mM TRIS buffer pH 8.3 and incubated at 37° C. To determine the functional stability in plasma, a 50 mM stock solution in DMSO was diluted 50-fold in fresh or freshly frozen citrated plasma from a healthy donor and incubated at 37° C. At specific time intervals an aliquot was withdrawn, added to an equal volume of DPPIV diluted in buffer or to an equal volume of plasma and the kinetics of inactivation were determined as described under b). The reduction in observed pseudo-first order rate constant is a measure for the amount of functional inhibitor lost during the incubation and allowed to estimate the half-life of the inhibitors in buffer and plasma. The following table lists the results.

Data set [3] is described as follows: Functional stability of DPPIV inhibitors in the reaction medium (buffer). It is filed as physicochemical. The settings on record: 50 mM TRIS buffer pH 8.3, 37° C. Here is the method: as §2
The target of data set [4] is T2, purified prolyl oligopeptidase (Homo sapiens, UniProt P48147).
T2 construct: from tissue; host or cells: human blood cells: platelets or mononuclear cells, not specified
T2 sequence (P48147 1-710): T1 sequence (P48147 1-710)
As to the kind of experiment: biochemical. On the procedure: as §1
Several peptides (cfr. table) were incubated with purified prolyl oligopeptidase. The compounds were dissolved in H2 O. The IC50 value was determined as previously described apart from the preincubation which was deleted. […]

Data set [5] has as its target T3, DPPIV (Homo sapiens, UniProt P27487).
T3 construct: from tissue; host or cells: prostasomes from human seminal plasma, purified on immobilized adenosine deaminase
It is filed as biochemical. The settings on record: inhibitor 0.1 or 0.5 mM, 37° C.; k+ = kobs/[I]o. On the procedure: (§3) All enzymatic reactions were carried out in 50 mM Tris.HCl buffer pH 8.3 at 37° C. with Gly-Pro-4-Me-2-naphtylamine.HCl as substrate. One activity unit is defined as the amount of enzyme which catalyzes the conversion of 1 micromole of substrate per minute at 37° C. All experiments were carried out with the same stock solution of DPPIV containing 1.8 units/ml. The enzyme was diluted (usually 1/200 or 1/500) in reaction buffer immediately before the experiment to a suitable concentration so as not to consume more that 10% of the substrate during the incubation period.
The kinetics of inactivation were measured by adding an appropriate concentration of inhibitor (0.1 or 0.5 mM) to 0.5 ml of enzyme in reaction buffer at 37° C. and determining the activity at various time points after mixing. To achieve this, 25 microliter samples were withdrawn and diluted […] in 2 mM Gly-Pro-4-Me-2-naphthylamine.HCl. The reaction was quenched with citrate after 10 to 15 min and the fluorescence was determined. The dilution in an excess of substrate reduced the velocity of inhibitor binding by a factor of 20. The decrease in fluorescence with time was fitted with the equation of a monoexponential decay yielding the pseudo-first order rate constant for binding (kobs) in the exponent. The second order rate constant (k+) was calculated as follows: k+ =kobs /[I]o where [I]o is the concentration of inhibitor in the incubation mixture.

For data set [6], the target named is T3, DPPIV. As to the kind of experiment: biochemical. Format: biochemical. On the procedure: as §3
The remaining activity was determined by adding 5 microliter of a 1 mM solution of Gly-Pro-4-Me-2-naphtylamine.HCl. The reaction mixture containing enzyme, substrate and inhibitor was incubated for 20 min at 37° C. The reaction was stopped by addition of 0.5 ml 100 mM citrate pH 4.0. The fluorescence of the sample was measured within 2 h after quenching. The measurements were done in duplicate and corrected for background fluorescence using a blanc with exactly the same composition except that the citrate solution was added before the substrate.

The target of data set [7] is T3, DPPIV. The data set can be described thus: Stability of the inhibitor-DPPIV adduct. Format: biochemical. The settings on record: DPPIV incubated with 0.5 mM inhibitor 1 hour, excess removed by gel filtration. Here is the method:
The phosphorylated enzyme is expected to hydrolyze slowly by action of solvent or nucleophilic groups on the enzyme.
The stability of the adduct was determined as follows. […] Excess inhibitor was removed by gel filtration on a PD 10 column (Pharmacia Biotech, Uppsala, Sweden) previously equilibrated with 50 mM Tris.HCl buffer, pH 8.3.
For orientation: SEC sorts molecules by how far they enter the pores of the column.

The mark [8] stands for this setting: 1 hour preincubation at room temperature, substrate Gly-Pro-4-Me-2-naphtylamine.HCl, Tris.HCl pH 8.3, 37° C., inhibitory diastereoisomer unless marked *, read-out: IC50.
[9] abbreviates: peptides dissolved in H2O, no preincubation, read-out: IC50.

T3 sequence (P27487 whole entry): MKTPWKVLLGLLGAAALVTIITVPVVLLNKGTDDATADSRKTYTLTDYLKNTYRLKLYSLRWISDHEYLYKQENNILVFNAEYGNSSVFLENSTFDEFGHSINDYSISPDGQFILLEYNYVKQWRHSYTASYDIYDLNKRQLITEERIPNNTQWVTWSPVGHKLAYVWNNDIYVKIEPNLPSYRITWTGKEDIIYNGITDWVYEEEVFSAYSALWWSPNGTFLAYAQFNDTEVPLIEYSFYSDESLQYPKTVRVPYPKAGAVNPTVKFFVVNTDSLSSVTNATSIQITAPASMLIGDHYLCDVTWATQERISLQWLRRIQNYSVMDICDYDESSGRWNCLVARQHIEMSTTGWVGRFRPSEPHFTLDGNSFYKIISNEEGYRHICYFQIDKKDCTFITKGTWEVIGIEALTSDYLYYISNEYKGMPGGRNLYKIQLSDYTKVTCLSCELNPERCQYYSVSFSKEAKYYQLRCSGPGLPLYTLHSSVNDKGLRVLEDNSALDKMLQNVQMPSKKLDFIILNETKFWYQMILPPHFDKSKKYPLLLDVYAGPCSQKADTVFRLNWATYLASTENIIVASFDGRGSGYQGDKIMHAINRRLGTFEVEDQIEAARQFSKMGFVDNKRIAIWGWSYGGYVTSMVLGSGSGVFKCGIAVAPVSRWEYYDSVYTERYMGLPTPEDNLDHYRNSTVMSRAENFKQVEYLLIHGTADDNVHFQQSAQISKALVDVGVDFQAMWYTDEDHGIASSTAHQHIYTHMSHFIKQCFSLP

Regarding `O=C(C1CCCN1C(=O)OCc1ccccc1)N1CCC1` (stereo not drawn) [Z-Pro-azetidine], in data set [1], the IC50 (commonly the concentration that inhibits the measured activity by half) was determined as 3 µM; the Ki (in general, the dissociation constant of the complex between target and ligand, obtained from inhibition or displacement) was 2.5 µM.

In data set [2], `N[C@@H](CC1CCCCC1)C(=O)N1CCC[C@H]1P(=O)(Oc1ccccc1)Oc1ccccc1` [Cyclohexylalanine-Pro^P -(OPh)2, Diphenyl (R)-1-[(S)-cyclohexylalanyl]pyrrolidine-2-phosphonate hydrochloride] registered a t1/2 in plasma of 0.3 ± 0.1 h. Besides, the t1/2 in buffer in data set [3] is 4.5 ± 0.8 h.

Compound `CSCC[C@H](NC(=O)[C@H](CC(C)C)NC(=O)CNC(=O)[C@H](Cc1ccccc1)NC(=O)[C@H](Cc1ccccc1)NC(=O)[C@H](CCC(N)=O)NC(=O)[C@H](CCC(N)=O)NC(=O)[C@@H]1CCCN1C(=O)[C@H](CCCCN)NC(=O)[C@@H]1CCCN1C(=O)[C@@H](N)CCCN=C(N)N)C(N)=O` [Substance P] displayed an IC50 in data set [4] of 163 µM.

For the compound `CC(C)(C)Oc1ccc(C[C@H](N)C(=O)N2CCCC2P(=O)(Oc2ccccc2)Oc2ccccc2)cc1` (stereo partly drawn) [O-tbutyl-Tyr-Pro^P -(OPh)2], the “K+ (second order rate constant)” value in data set [5] came out at 0.5 M⁻¹ s⁻¹. Moreover, the IC50 in data set [6] (setting [8]) was found to be 1000 µM.

`CC[C@H](C)[C@H](N)C(=O)N1CCC[C@H]1P(=O)(Oc1ccccc1)Oc1ccccc1.Cl` [(S)-Ile-(R)-Pro^P (OPh)2, Diphenyl (R)-1-[(S)-isoleucinyl]pyrrolidine-2-phosphonate hydochloride] gave a t1/2 in plasma in data set [2] of 1.4 ± 0.9 h. In data set [3], the t1/2 in buffer is recorded as 10 ± 5 h.

In turn, RPPGFSPFR [Bradykinin] came in with a concentration for half-maximal inhibition (IC50) in data set [4] of 7 µM.

`C[C@H](N)C(=O)N1CCCC1P(=O)(Oc1ccccc1)Oc1ccccc1.Cl` (stereo partly drawn) [Ala-Pro-(OPh)2, Diphenyl (S,R)-1-[(S)-alanyl]pyrrolidine-2-phosphonate hydrochloride]: the “K+ (second order rate constant)” value in data set [5] turned out to be 0.7 M⁻¹ s⁻¹. The “stability of the adduct at room temperature” value (from here on “stability of the adduct”) in data set [7] is recorded as more than 4 weeks. Besides, the IC50 in data set [6] (setting [8]) came to 2000 µM.

Take `Cl.N[C@@H](Cc1ccccc1)C(=O)N1CCC[C@H]1P(=O)(Oc1ccccc1)Oc1ccccc1` [Phe-Pro^P -(OPh)2, Diphenyl (R)-1-[(S)-phenylalanyl]pyrrolidine-2-phosphonate hydrochloride]: the t1/2 in plasma in data set [2] worked out at 0.7 ± 0.1 h. In data set [3], the t1/2 in buffer amounted to 6 ± 1 h. In addition, the “stability of the adduct” value in data set [7] is on record as more than 3 weeks. Also, in data set [6], half-maximal inhibition (IC50) required 70 µM.

Take `Cl.N[C@@H](Cc1ccc(F)cc1)C(=O)N1CCC[C@H]1P(=O)(Oc1ccccc1)Oc1ccccc1` [pF-Phe-Pro^P -(OPh)2, Diphenyl (R)-1-[(S)-p-fluorophenylalanyl]pyrrolidine-2-phosphonate hydrochloride]: in data set [2], the t1/2 in plasma is listed as 0.7 ± 0.1 h. In data set [3], this compound yielded a t1/2 in buffer of 8.9 ± 0.1 h. For the same compound, the “stability of the adduct” value in data set [7] was more than 4 weeks. This compound returned a half-maximal inhibitory concentration (IC50) in data set [6] of 100 µM.

Take `CC[C@H](C)[C@H](N)C(=O)N1CCCC1P(=O)(Oc1ccccc1)Oc1ccccc1.Cl` (stereo partly drawn) [Ile-Pro-^P -(OPh)2, Diphenyl (S,R)-1-[(S)-isoleucinyl]pyrrolidine-2-phosphonate hydochloride]: the “K+ (second order rate constant)” value in data set [5] amounted to 2.3 M⁻¹ s⁻¹. Further, the “stability of the adduct” value in data set [7] was more than 3 weeks. Besides, the IC50 in data set [6] (setting [8]) was 350 µM.

Consider `CC[C@H](C)[C@H](N)C(=O)N1CCC(F)C1.O=C(O)C(F)(F)F` (mixture of isomers) [Ile-3-Fluoro-pyrrolidine, 1-(L-Isoleucyl)-3(R,S)-fluoropyrrolidine trifluoroacetate], for which the “inhibitory activity on DPPIV (in words)” value in data set [6] was “particularly active inhibitor”.

Regarding `O=C(C1CSCN1C(=O)OCc1ccccc1)N1CCC1` (stereo not drawn) [Z-thiopro-azetidine], in data set [1], the concentration for half-maximal inhibition (IC50) worked out at 1.8 µM and affinity was put at a Ki of 5 µM.

For `CC[C@H](C)[C@H](NC(=O)[C@H](Cc1ccc(O)cc1)NC(=O)[C@@H](NC(=O)[C@H](CCCNC(=N)N)NC(=O)[C@@H](N)CC(=O)O)C(C)C)C(=O)N[C@@H](Cc1cnc[nH]1)C(=O)N1CCC[C@H]1C(=O)N[C@@H](Cc1ccccc1)C(=O)O` [Angiotensin II], the concentration for half-maximal inhibition (IC50) in data set [4] (setting [9]) was determined as 25 µM.

Turning to `Cl.N[C@@H](Cc1ccccc1)C(=O)N1CCC[C@@H]1P(=O)(Oc1ccccc1)Oc1ccccc1` [AB22, Diphenyl (S)-1-[(S)-phenaylalyl]pyrrolidine-2-phosphonate hydrochloride], the “inhibitory activity on DPPIV (in words)” value in data set [6] is “inactive”.

Consider `CC[C@H](C)[C@H](NC(=O)[C@H](Cc1ccc(O)cc1)NC(=O)[C@@H](NC(=O)[C@H](CCCNC(=N)N)NC(=O)[C@@H](N)CC(=O)O)C(C)C)C(=O)N[C@@H](Cc1c[nH]cn1)C(=O)N1CCC[C@H]1C(=O)O` [Angiotensin (1-7)], for which the IC50 in data set [4] (setting [9]) worked out at 750 µM.

In the case of `Cl.Cl.N=C(N)NCCC[C@H](N)C(=O)N1CCCC1P(=O)(Oc1ccccc1)Oc1ccccc1` (stereo partly drawn) [(S)-Arg-(S,R)-Pro^P (OPh)2, Diphenyl (S,R)-1-[(S)-arginyl]pyrrolidine-2-phosphonate dihydrochloride], the t1/2 in plasma in data set [2] was 1.9 ± 0.2 h. In data set [3], this compound registered a t1/2 in buffer of 2.6 ± 0.3 h.

Turning to `O=C([C@@H]1CCCN1C(=O)OCc1ccccc1)N1CCC(F)C1` (stereo partly drawn) [Z-Pro-3-fluoropyrrolidine, 1-[N-Benzyloxycarbonyl-L-propyl]-3(R,S)-fluoropyrrolidine], in data set [1], the “inhibitory activity on PEP (in words)” value is “particularly active inhibitor”, half-maximal inhibition (IC50) required 0.45 µM and the affinity corresponds to a Ki of 0.1 µM.

Take `O=C(NC(Cc1ccccc1)C(=O)N1CCC1)OCc1ccccc1` (stereo not drawn) [Z-Phe-azetidine]: in data set [1], the IC50 amounted to 30 µM.
